From ChEMBL document CHEMBL3286360, “Tuning the antimicrobial pharmacophore to enable discovery of short lipopeptides with multiple modes of action” (Eur J Med Chem, 2014)
Values after ≈ are worked out from the molar mass of the structure shown. Where a SMILES comes first, the peptide text is derived from it. The star is where a group is joined. Stearoyl = CCCCCCCCCCCCCCCCCC(=O)*; Myristoyl = CCCCCCCCCCCCCC(=O)*; Decanoyl = CCCCCCCCCC(=O)*

How the values were obtained:
Format in all cases: functional
[1] = test system: Staphylococcus aureus; assay: Antimicrobial activity against Staphylococcus aureus ATCC 12600 after 17 to 20 hrs by serial dilution method
[2] = test system: Escherichia coli; assay: Antimicrobial activity against Escherichia coli ATCC 25922 after 17 to 20 hrs by serial dilution method
[3] = test system: Candida albicans; assay: Antimicrobial activity against Candida albicans ATCC 14053 after 17 to 20 hrs by serial dilution method

MIC [1] [µg/mL]	MIC [2] [µg/mL]	MIC [3] [µg/mL]	Structure (SMILES)
3.9 (≈ 3.18 µM)	7.8 (≈ 6.36 µM)	> 62.5	CCCCCCCCCC(=O)N[C@@H](CCCCN)C(=O)N[C@H](C(=O)N[C@@H](CCCCN)C(=O)N[C@@H](CCCNC(=N)N)C(=O)N[C@@H](Cc1c[nH]c2ccccc12)C(=O)N[C@@H](Cc1c[nH]c2ccccc12)C(=O)N[C@@H](CCCNC(=N)N)C(N)=O)[C@@H](C)CC (Decanoyl-KIKRWWR-NH2)
7.8 (≈ 9.11 µM)	15.6 (≈ 18.2 µM)	15.6 (≈ 18.2 µM)	CCCCCCCCCCCCCC(=O)N[C@@H](CCCCN)C(=O)N[C@@H](CCCCN)C(=O)N[C@@H](Cc1c[nH]c2ccccc12)C(=O)N[C@@H](Cc1c[nH]c2ccccc12)C(N)=O (Myristoyl-KKWW-NH2)
7.8 (≈ 6.76 µM)	15.6 (≈ 13.5 µM)	> 62.5	CCCCCCCCCCCCCC(=O)N[C@@H](CCCCN)C(=O)N[C@@H](CCCNC(=N)N)C(=O)N[C@H](C(=O)N[C@@H](Cc1c[nH]c2ccccc12)C(=O)N[C@@H](Cc1c[nH]c2ccccc12)C(=O)N[C@@H](CCCNC(=N)N)C(N)=O)[C@@H](C)CC (Myristoyl-KRIWWR-NH2)
> 31.2	> 31.2	> 62.5	CCCCCCCCCCCCCCCCCC(=O)N[C@@H](CCCCN)C(=O)N[C@H](C(=O)N[C@@H](CCCCN)C(=O)N[C@@H](CCCNC(=N)N)C(=O)N[C@@H](Cc1c[nH]c2ccccc12)C(=O)N[C@@H](CCCNC(=N)N)C(N)=O)[C@@H](C)CC (Stearoyl-KIKRWR-NH2)
> 31.2	> 31.2	> 62.5	CCCCCCCCCCCCCCCCCC(=O)N[C@@H](CCCCN)C(=O)N[C@@H](CCCCN)C(=O)N[C@@H](Cc1c[nH]c2ccccc12)C(=O)N[C@@H](Cc1c[nH]c2ccccc12)C(N)=O (Stearoyl-KKWW-NH2)
7.8 (≈ 8.05 µM)	31.2 (≈ 32.2 µM)	31.2 (≈ 32.2 µM)	CCCCCCCCCCCCCC(=O)N[C@@H](CCCCN)C(=O)N[C@H](C(=O)N[C@@H](Cc1c[nH]c2ccccc12)C(=O)N[C@@H](Cc1c[nH]c2ccccc12)C(=O)N[C@@H](CCCCN)C(N)=O)[C@@H](C)CC (Myristoyl-KIWWK-NH2)
3.9 (≈ 4.87 µM)	7.8 (≈ 9.75 µM)	31.2 (≈ 39 µM)	CCCCCCCCCC(=O)N[C@@H](CCCCN)C(=O)N[C@@H](CCCCN)C(=O)N[C@@H](Cc1c[nH]c2ccccc12)C(=O)N[C@@H](Cc1c[nH]c2ccccc12)C(N)=O (Decanoyl-KKWW-NH2)
3.9 (≈ 4.27 µM)	7.8 (≈ 8.54 µM)	15.6 (≈ 17.1 µM)	CCCCCCCCCC(=O)N[C@@H](CCCCN)C(=O)N[C@H](C(=O)N[C@@H](Cc1c[nH]c2ccccc12)C(=O)N[C@@H](Cc1c[nH]c2ccccc12)C(=O)N[C@@H](CCCCN)C(N)=O)[C@@H](C)CC (Decanoyl-KIWWK-NH2)
31.2 (≈ 29.2 µM)	125 (≈ 117 µM)	> 62.5	CCCCCCCCCCCCCCCCCC(=O)N[C@@H](CCCNC(=N)N)C(=O)N[C@@H](CCCCN)C(=O)N[C@@H](Cc1c[nH]c2ccccc12)C(=O)N[C@@H](Cc1c[nH]c2ccccc12)C(=O)N[C@@H](CCCCN)C(N)=O (Stearoyl-RKWWK-NH2)
31.2 (≈ 43 µM)	> 31.2	> 62.5	CCCCCCCCCCCCCCCCCC(=O)N[C@@H](CCCCN)C(=O)N[C@@H](Cc1c[nH]c2ccccc12)C(=O)N[C@@H](CCCCN)C(N)=O (Stearoyl-Lys-Trp-Lys-NH2)
7.8 (≈ 6.93 µM)	15.6 (≈ 13.9 µM)	> 62.5	CCCCCCCCCCCCCC(=O)N[C@@H](CCCNC(=N)N)C(=O)N[C@H](C(=O)N[C@@H](CCCCN)C(=O)N[C@@H](Cc1c[nH]c2ccccc12)C(=O)N[C@@H](Cc1c[nH]c2ccccc12)C(=O)N[C@@H](CCCCN)C(N)=O)[C@@H](C)CC (Myristoyl-RIKWWK-NH2)
3.9 (≈ 3.55 µM)	15.6 (≈ 14.2 µM)	> 62.5	CCCCCCCCCC(=O)N[C@@H](CCCCN)C(=O)N[C@H](C(=O)N[C@@H](CCCNC(=N)N)C(=O)N[C@@H](Cc1c[nH]c2ccccc12)C(=O)N[C@@H](Cc1c[nH]c2ccccc12)C(=O)N[C@@H](CCCNC(=N)N)C(N)=O)[C@@H](C)CC (Decanoyl-KIRWWR-NH2)
